For orientation: IC50 means the concentration at which inhibition is half-maximal. A lower IC50 goes with higher potency.

Molecules are shown by their SMILES. Converted amounts (≈) assume the structure as drawn.

What all share (type): cell-based
Data set [1] concerns Entamoeba histolytica HK-9 strain. In words: Antiamoebic activity, tube method. The conditions noted are these: for IC100 Entamoeba histolytica / IC50: 72 hours, (36-37) °C, parasite count; for IC50 / lethal activity / IC50 times less than that of metronidazole: Entamoeba histolytica; for lethal activity: result in words; for IC50 times less than that of metronidazole: relative to the standard drug metronidazole. The method, then:
(§1) Entamoeba histolytica HK-9 strain (ATCC number 30015) was cultured in LYI-S-2 medium supplemented with antibiotics. Giardia intestinalis WB strain (ATCC number 30957) was grown in a modified YI-S medium with antibiotics. Both parasites were cultivated in 15-mL screw-capped borosilicate glass tubes containing 13 mL medium. The tubes were incubated on a 15° horizontal slant at (36-37) °C. Culture maintenance and subculturing was performed as described by Clark and Diamond. Entamoeba and Giardia were harvested from confluent cultures by chilling of the tubes on ice for 5-10 min to detach cells, followed by centrifugation at 800 x g for 5 min. Leishmania donovani and L. tropica promastigotes were cultured in Schneider's medium containing 20 % foetal calf serum and antibiotics at 24°C. Stationary phase promastigotes were harvested by centrifugation at 1000 x g for 10 min.
(§2) The antiamoebic and antigiardial activities of metronidazole-derivatives were tested using the tube method according to published procedures with some modifications. Eight milligrams of a test compound or metronidazole were dissolved in 10 µL of dimethyl sulfoxide (DMSO) and completed with 10 mL growth medium. The solutions were filter sterilized using 0.22 µm syringe filters and the appropriate volumes of the solutions were taken to prepare the concentrations of each compound in 15-mL screw-capped borosilicate glass tubes. For each compound, concentrations of 60, 30, 15, 7.5, 3.5, 1.7, 0.8, 0.4, 0.2, 0.1, 0.05, 0.02, 0.01, 0.005 µg/mL medium were prepared in a final volume of 15 mL to exclude air from the tube. For more accurate determination of the biologically active concentration of the compound, other concentrations around the above mentioned ones were also tested. Each tube was inoculated with 20,000 cells of the parasite under testing (Entamoeba or Giardia). Each compound was assayed in duplicate in each of three independent experiments. In each assay, two sets of controls were performed, one without any test compound and another with metronidazole. The caps of Entamoeba and Giardia tubes were tightly screwed and wrapped with parafilm. The tubes were incubated on a 15° horizontal slant at (36-37) °C for 72 hours.
(§3) The number of parasites in the tubes was determined as described in the literature by counting in a hemacytometer at the 10X objective. For counting of Entamoeba and Giradia, the tubes were placed on ice to permit detachment of the parasite and centrifuged at 1000 x g for 10 min. The supernatant was discarded and 1 mL fresh medium was added to each tube. Then, 25 µL of the parasite suspension in each tube was mixed with 100 µL of 0.4 % trypan blue in phosphate buffered saline (PBS) to distinguish viable from dead parasites.
(§4) The minimal inhibitory concentration (MIC) defined as the minimum concentration of a compound at which no parasitic growth was observed. The 50% inhibitory concentration (IC50) was the concentration of compounds which cut the number of parasites to half that in the negative control (growth medium + DMSO + parasites).

Data set [2] deals with Leishmania tropica promastigotes. The data set is described as follows: Antileishmanial activity, 96-well plates. The conditions noted are these: for IC50: Leishmania tropica; for IC50 / IC100 Leishmania tropica: promastigotes, 72 h, 24°C; for lethal activity: Leishmania tropica promastigotes, result in words. Here is the method: as §1
(§5) The antileishmanial activity of metronidazole-derivatives was tested in 96-well plates. Each of the meronidazole-derivatives and the reference drugs were dissolved in 10 µL of dimethyl sulfoxide (DMSO) and were completed with […] growth medium. The solutions were filter sterilized using 0.22 µm syringe filters. Then, 170 µL-two fold serial dilutions of each of the compounds and metronidazole starting at a concentration of 2000 µg/mL in culture medium were prepared in flat bottomed 96-well microtiter plates of 400-µL-well-capacity. A suspension containing 10^5 of Leishmania promastigotes per milliliter culture medium was prepared and 170-µL portions of the suspension were added to the appropriate wells. Plates were covered with the microtiter plate lids and incubated at 24°C. The number of parasites in each well was determined after 72 h by counting in a hemacytometer at the 10X objective lens. Leishmania viability was determined by observing promastigote motility. Each compound was assayed in duplicate in each of three independent experiments. In each assay two sets of controls were performed, one without any test compound and another with amphotericin B as a standard antileishmanial drug.
as §4

Data set [3] concerns Leishmania donovani promastigotes. The data set is described as follows: Antileishmanial activity, 96-well plates. The conditions noted are these: for IC50: Leishmania donovani; for IC50 / IC100 Leishmania donovani: promastigotes, 72 h, 24°C; for lethal activity: Leishmania donovani promastigotes, result in words. The method, then: as §1, §5, §4
Data set [4] concerns Giardia intestinalis WB strain. The data set is described as follows: Antigiardial activity, tube method. The following applies: for IC100 Giardia intestinalis / IC50: 72 hours, (36-37) °C, parasite count; for IC50: Giardia duodenalis; for lethal activity / IC50 times less than that of metronidazole: Giardia intestinalis; for lethal activity: result in words; for IC50 times less than that of metronidazole: relative to the standard drug metronidazole. The method, then: as §1, §2, §3, §4

Another data set deals with Hep-2 cells. The data set is described as follows: Cytotoxicity assay, trypan blue exclusion. The following applies: compared with the standard drug. Here is the method: (§6) The cytotoxicity of the metronidazole-derivatives and the reference drugs was investigated on Hep-2 and Vero cells using the standard cytotoxicity assay and the trypan blue exclusion method, as described in the literature, with modifications. A cell suspension (10^5 cells/mL RPMI medium containing 10% inactivated foetal calf serum) was prepared from confluent cultures and 100 µL portions of the suspension were added to the wells of 96-well plates. The cells were incubated for 24 h at 37 °C and 5 % CO2 and the medium in each well was then replaced with fresh 150 µL medium. Solutions of the test compounds or reference drugs were prepared and sterilized as described above (Antiprotozolal activity). Then, 150 µL-two fold serial dilutions of each of the compounds and the reference drugs starting at a concentration of 2000 µg/mL in culture medium were prepared in the plates. After 48 hour incubation at 37 °C and 5 % CO2, the number of cells in each well was determined as follows: The medium in each well was gently replaced with 100 µL of 0.25% (w/v) trypsin-0.53 mM EDTA solution and the plates were incubated for 5 minute at 37 °C to detach the cells followed by the addition of 200 µL of trypan blue solution were added to each well and the plates were, then, placed on ice. The cells were counted in a hemacytometer at the 10X objective. Each compound or reference drug was assayed in duplicate in each of three independent experiments. In each assay the negative controls (without any test compound or reference drug) were included in duplicates. IC0 was the concentration of compound at which the number of cells in the well was more than or equal to that of the negative control (IC0 = no inhibition of cell growth). Table 1. Antiamoebic and antigiardial activities of compounds IA, IIA, and IIIA

A further data set relates to Vero cells. In words: Cytotoxicity assay, trypan blue exclusion. The conditions noted are these: compared with the standard drug. The method, then: as §6

With `Cc1ncc([N+](=O)[O-])n1CCO` [Metronidazole, 2-(2-methyl-5-nitro-1H-imidazol-1-yl) ethanol], the “IC100 Entamoeba histolytica” value in data set [1] is 3.2 µg/mL. In addition, the 50% inhibitory concentration (IC50) in data set [1] turned out to be 0.8 µg/mL (≈ 4.67 µM); in data set [2], 2000 µg/mL (≈ 11700 µM); in data set [3] it was 2000 µg/mL (≈ 11700 µM); in data set [4], 0.8 µg/mL (≈ 4.67 µM). Also, the “IC100 Giardia intestinalis” value in data set [4] is given as 3.2 µg/mL.
Turning to `Cc1ncc([N+](=O)[O-])n1CCN1CCN(CCO)CC1` [IIIA], in data set [1], the “IC100 Entamoeba histolytica” value was 0.8 µg/mL; the lethal activity entry is recorded as “potent lethal activity”; the midpoint of inhibition, the IC50, lay at 0.04 µg/mL (≈ 0.141 µM); the “IC50 times less than that of metronidazole” value (from here on “IC50 times less than that”) is 20 times. Besides, in the data set on Hep-2 cells, the cytotoxicity entry is listed as “equivalent in cytotoxicity to the standard drug”. For the same compound, in the data set with Vero cells, the cytotoxicity result is recorded as “equivalent in cytotoxicity to the standard drug”. For the same compound, in data set [2], the lethal activity result is reported as “lethal activity”, the IC50 came out at 62.5 µg/mL (≈ 221 µM) and the “IC100 Leishmania tropica” value is on record as 250 µg/mL. Also, in data set [3], the lethal activity entry was “lethal activity”, 62.5 µg/mL (≈ 221 µM) corresponded to half-maximal inhibition (IC50) and the “IC100 Leishmania donovani” value is 250 µg/mL. Besides, in data set [4], the “IC100 Giardia intestinalis” value came out at 0.8 µg/mL, the 50% inhibitory concentration (IC50) is 0.04 µg/mL (≈ 0.141 µM), the lethal activity entry was “potent lethal activity” and the “IC50 times less than that” value was 20 times.
Consider `Cc1ncc([N+](=O)[O-])n1CCOc1ccc(C=O)cc1` [Compound IA, 4-[2-(2-methyl-5-nitro-1H-imidazol-1-yl)ethoxy]benzaldehyde], for which, in data set [1], the “IC100 Entamoeba histolytica” value worked out at 0.14 µg/mL, the lethal activity result is “potent lethal activity”, the half-maximal inhibitory concentration (IC50) amounted to 0.01 µg/mL (≈ 0.0363 µM) and the “IC50 times less than that” value came to 80 times. In addition, in the data set on Hep-2 cells, the cytotoxicity result is “equivalent in cytotoxicity to the standard drug”. The cytotoxicity entry in the data set with Vero cells is given as “equivalent in cytotoxicity to the standard drug”. Moreover, in data set [2], the lethal activity entry is on record as “lethal activity”, inhibition was half-maximal at 150 µg/mL (≈ 545 µM) (IC50) and the “IC100 Leishmania tropica” value amounted to 2000 µg/mL. Besides, in data set [3], the lethal activity entry is “lethal activity”, half-maximal inhibition (IC50) required 300 µg/mL (≈ 1090 µM) and the “IC100 Leishmania donovani” value is 2000 µg/mL. Besides, in data set [4], the “IC100 Giardia intestinalis” value was 0.14 µg/mL, half-maximal inhibition (IC50) required 0.01 µg/mL (≈ 0.0363 µM), the lethal activity entry is reported as “potent lethal activity” and the “IC50 times less than that” value is 80 times.
As to `Cc1ncc([N+](=O)[O-])n1CCNS(=O)(=O)c1sc(Cl)cc1Br` [IIA], in data set [1], the “IC100 Entamoeba histolytica” value came to 0.3 µg/mL, the lethal activity entry is “potent lethal activity”, the IC50 amounted to 0.04 µg/mL (≈ 0.0931 µM) and the “IC50 times less than that” value is reported as 20 times. Moreover, in the data set on Hep-2 cells, the cytotoxicity entry is “equivalent in cytotoxicity to the standard drug”. The cytotoxicity result in the data set on Vero cells was “equivalent in cytotoxicity to the standard drug”. Besides, in data set [2], the lethal activity result is on record as “lethal activity”, the IC50 is 150 µg/mL (≈ 349 µM) and the “IC100 Leishmania tropica” value is 2000 µg/mL. In addition, in data set [3], the lethal activity entry is listed as “lethal activity”, the IC50 came to 300 µg/mL (≈ 698 µM) and the “IC100 Leishmania donovani” value is recorded as 2000 µg/mL. In data set [4], the “IC100 Giardia intestinalis” value is listed as 0.3 µg/mL, the IC50 was found to be 0.04 µg/mL (≈ 0.0931 µM), the lethal activity entry was “potent lethal activity” and the “IC50 times less than that” value was 20 times.
As for `C[C@@H]1[C@H](O)[C@@H](C)/C=C/C=C/C=C/C=C/C=C/C=C/C=C/[C@H](O[C@@H]2O[C@H](C)[C@@H](O)[C@H](N)[C@@H]2O)C[C@@H]2O[C@](O)(C[C@@H](O)C[C@@H](O)[C@H](O)CC[C@@H](O)C[C@@H](O)CC(=O)O[C@H]1C)C[C@H](O)[C@H]2C(=O)O` [Amphotericin B, reference compound], in data set [2], the IC50 came out at 0.08 µg/mL (≈ 0.0866 µM) and the “IC100 Leishmania tropica” value amounted to 2.5 µg/mL. Besides, in data set [3], the IC50 was 0.08 µg/mL (≈ 0.0866 µM) and the “IC100 Leishmania donovani” value came to 2.5 µg/mL.
